Laboratory results as given in ChEMBL document CHEMBL1146731, “Design, synthesis, and structure-activity relationships of pyrazolo[3,4-d]pyrimidines: a novel class of potent enterovirus inhibitors” (Bioorg Med Chem Lett, 2004).

Key:
[1] = tested on: Enterovirus; assay: Inhibitory concentration to prevent formation of Enterovirus (EV 71) plaques; format: functional, organism-based
[2] = tested on: Coxsackievirus; assay: Inhibitory concentration to prevent formation of Coxsackievirus B3 (CVB3) plaques; format: functional, organism-based
[3] = tested on: Rhabdomyosarcoma cell; assay: Cytotoxic effect of compound towards human Rhabdomyosarcoma cell line was evaluated; format: functional, cell-based
[4] = tested on: Influenza B virus; assay: Inhibitory concentration of compound against formation of Influenza A virus (HK) plaque in plaque reduction assay; format: functional, organism-based
[5] = tested on: Coxsackievirus; assay: Inhibitory concentration of compound against formation of Coxsackievirus B3 plaque in plaque reduction assay; format: functional, organism-based
[6] = tested on: Coxsackievirus; assay: Inhibitory concentration of compound against formation of Coxsackievirus B4 plaque in plaque reduction assay; format: functional, organism-based
[7] = tested on: Human rhinovirus sp.; assay: Inhibitory concentration of compound against formation of Human rhinovirus 2 plaque in plaque reduction assay; format: functional, organism-based
[8] = tested on: Echovirus; assay: Inhibitory concentration of compound against formation of Echovirus 29 virus plaque in plaque reduction assay; format: functional, organism-based
[9] = tested on: Human alphaherpesvirus 1; assay: Inhibitory concentration of compound against formation of Herpes simplex virus 1 plaque in plaque reduction assay
[10] = tested on: Coxsackievirus; assay: Inhibitory concentration of compound against formation of Coxsackievirus A16 plaque in plaque reduction assay; format: functional, organism-based
[11] = tested on: Coxsackievirus; assay: Inhibitory concentration of compound against formation of Coxsackievirus B5 plaque in plaque reduction assay; format: functional, organism-based
[12] = tested on: Influenza A virus; assay: Inhibitory concentration of compound against formation of Influenza A virus (WSN) plaque in plaque reduction assay; format: functional, organism-based
[13] = tested on: Coxsackievirus; assay: Inhibitory concentration of compound against formation of Coxsackievirus B1 plaque in plaque reduction assay; format: functional, organism-based
[14] = tested on: Echovirus; assay: Inhibitory concentration of compound against formation of Echovirus 9 virus plaque in plaque reduction assay; format: functional, organism-based
[15] = tested on: Human rhinovirus sp.; assay: Inhibitory concentration of compound against formation of Human rhinovirus 14 plaque in plaque reduction assay; format: functional, organism-based
[16] = tested on: Coxsackievirus; assay: Inhibitory concentration of compound against formation of Coxsackievirus B6 plaque in plaque reduction assay; format: functional, organism-based
[17] = tested on: Enterovirus; assay: Inhibitory concentration of compound against formation of Enterovirus 71 (2231) genotype C plaque in plaque reduction assay; format: functional, organism-based
[18] = tested on: Coxsackievirus; assay: Inhibitory concentration of compound against formation of Coxsackievirus B2 plaque in plaque reduction assay; format: functional, organism-based
[19] = tested on: Coxsackievirus; assay: Inhibitory concentration of compound against formation of Coxsackievirus A24 plaque in plaque reduction assay; format: functional, organism-based
[20] = tested on: Coxsackievirus; assay: Inhibitory concentration of compound against formation of Coxsackievirus A10 plaque in plaque reduction assay; format: functional, organism-based
[21] = tested on: Enterovirus; assay: Inhibitory concentration of compound against formation of Enterovirus 71 (BrCr) genotype A plaque in plaque reduction assay; format: functional, organism-based
[22] = tested on: Enterovirus; assay: Inhibitory concentration of compound against formation of Enterovirus 68 (EV 68) plaque in plaque reduction assay; format: functional, organism-based
[23] = tested on: Coxsackievirus; assay: Inhibitory concentration of compound against formation of Coxsackievirus A9 plaque in plaque reduction assay; format: functional, organism-based
[24] = tested on: Enterovirus; assay: Inhibitory concentration of compound against formation of Enterovirus 71 (1743) genotype B plaque in plaque reduction assay; format: functional, organism-based

Cc1ccccc1C(c1sccc1C)N1CCN(c2ncnc3c2cnn3-c2ccccc2)CC1 (stereo unspecified)
IC50 [1]: 410 nM
IC50 [2]: 84 nM
IC50 [3]: > 25000 nM

c1ccc(-c2ccc(C(c3ccccc3)N3CCN(c4ncnc5c4cnn5-c4ccccc4)CC3)cc2)cc1 (stereo unspecified)
IC50 [1]: 1900 nM
IC50 [2]: 310 nM
IC50 [3]: > 25000 nM

c1ccc(Cn2ncc3c(N4CCN(C(c5ccccc5)c5ccccc5)CC4)ncnc32)cc1
IC50 [1]: > 25000 nM
IC50 [2]: > 25000 nM
IC50 [3]: > 25000 nM

Brc1ccc(C(c2ccccc2)N2CCN(c3ncnc4c3cnn4-c3ccccc3)CC2)cc1 (stereo unspecified)
IC50 [1]: 910 nM
IC50 [2]: 490 nM
IC50 [3]: > 25000 nM

CCCn1ncc2c(N3CCN(C(c4ccccc4)c4ccccc4)CC3)ncnc21
IC50 [1]: > 25000 nM
IC50 [2]: > 25000 nM
IC50 [3]: > 25000 nM

FC(F)(F)c1ccc(C(c2ccccc2)N2CCN(c3ncnc4c3cnn4-c3ccccc3)CC2)cc1 (stereo unspecified)
IC50 [1]: 1650 nM
IC50 [2]: 300 nM
IC50 [3]: > 25000 nM

c1ccc(C(c2nccs2)N2CCN(c3ncnc4c3cnn4-c3ccccc3)CC2)cc1 (stereo unspecified)
IC50 [1]: 340 nM
IC50 [2]: 110 nM
IC50 [3]: > 25000 nM

c1ccc(C(c2cccnc2)N2CCN(c3ncnc4c3cnn4-c3ccccc3)CC2)cc1 (stereo unspecified)
IC50 [1]: 4600 nM
IC50 [2]: 530 nM
IC50 [3]: > 25000 nM

Cc1noc(C)c1C(c1ccccc1)N1CCN(c2ncnc3c2cnn3-c2ccccc2)CC1 (stereo unspecified)
IC50 [1]: 580 nM
IC50 [2]: 95 nM
IC50 [3]: > 25000 nM

Cc1ccsc1C(c1ccccc1Br)N1CCN(c2ncnc3c2cnn3-c2ccccc2)CC1 (stereo unspecified)
IC50 [1]: 320 nM
IC50 [2]: 72 nM
IC50 [3]: > 25000 nM

O=C1N(CCCCCCOc2ccc(Br)cc2)CCN1c1ccncc1
IC50 [4]: > 25000 nM
IC50 [5]: > 25000 nM
IC50 [6]: > 25000 nM
IC50 [7]: > 25000 nM
IC50 [8]: > 25000 nM
IC50 [9]: > 25000 nM
IC50 [10]: > 25000 nM
IC50 [11]: > 25000 nM
IC50 [12]: > 25000 nM
IC50 [13]: > 25000 nM
IC50 [14]: 2820 nM
IC50 [15]: 11600 nM
IC50 [16]: > 25000 nM

c1ccc(C(c2ccncc2)N2CCN(c3ncnc4c3cnn4-c3ccccc3)CC2)cc1 (stereo unspecified)
IC50 [1]: 780 nM
IC50 [2]: 300 nM
IC50 [3]: > 25000 nM

CCn1ncc2c(N3CCN(C(c4ccccc4)c4ccccc4)CC3)ncnc21
IC50 [1]: > 25000 nM
IC50 [2]: > 25000 nM
IC50 [3]: > 25000 nM

c1ccc(C(c2ccccc2)N2CCN(c3ncnc4c3cnn4-c3ccccc3)CC2)cc1
IC50 [4]: > 25000 nM
IC50 [5]: 150 nM
IC50 [6]: 160 nM
IC50 [7]: > 25000 nM
IC50 [17]: 520 nM
IC50 [8]: > 25000 nM
IC50 [18]: 80 nM
IC50 [9]: > 25000 nM
IC50 [10]: 230 nM
IC50 [19]: 50 nM
IC50 [1]: 410 nM
IC50 [11]: 440 nM
IC50 [20]: 390 nM
IC50 [21]: 350 nM
IC50 [12]: > 25000 nM
IC50 [22]: 180 nM
IC50 ([13]; Coxsackievirus): 690 nM
IC50 [14]: 300 nM
IC50 [23]: 260 nM
IC50 [2]: 150 nM
IC50 [3]: > 25000 nM
IC50 [24]: 470 nM
IC50 [15]: > 25000 nM
IC50 [16]: 940 nM

Cc1ccsc1C(c1c(C)noc1C)N1CCN(c2ncnc3c2cnn3-c2ccccc2)CC1 (stereo unspecified)
IC50 [1]: 650 nM
IC50 [2]: 81 nM
IC50 [3]: > 25000 nM

Cc1ccsc1C(c1ccccn1)N1CCN(c2ncnc3c2cnn3-c2ccccc2)CC1 (stereo unspecified)
IC50 [1]: 360 nM
IC50 [2]: 63 nM
IC50 [3]: > 25000 nM

c1ccc(C(c2ccccn2)N2CCN(c3ncnc4c3cnn4-c3ccccc3)CC2)cc1 (stereo unspecified)
IC50 [1]: 370 nM
IC50 [2]: 170 nM
IC50 [3]: > 25000 nM

Clc1ccc(C(c2ccccc2)N2CCN(c3ncnc4c3cnn4-c3ccccc3)CC2)cc1 (stereo unspecified)
IC50 [1]: 1970 nM
IC50 [2]: 260 nM
IC50 [3]: > 25000 nM

Cn1ncc2c(N3CCN(C(c4ccccc4)c4ccccc4)CC3)ncnc21
IC50 [1]: > 25000 nM
IC50 [2]: > 25000 nM
IC50 [3]: > 25000 nM

Cc1ccccc1C(c1ccccc1)N1CCN(c2ncnc3c2cnn3-c2ccccc2)CC1 (stereo unspecified)
IC50 [1]: 1980 nM
IC50 [2]: 310 nM
IC50 [3]: > 25000 nM

Cc1ccsc1C(c1ccccc1)N1CCN(c2ncnc3c2cnn3-c2ccccc2)CC1 (stereo unspecified)
IC50 [1]: 460 nM
IC50 [2]: 89 nM
IC50 [3]: > 25000 nM

c1ccc(C(c2ccccc2)N2CCN(c3[nH]cnc4nncc3-4)CC2)cc1
IC50 [1]: > 25000 nM
IC50 [2]: > 25000 nM
IC50 [3]: > 25000 nM

N#Cc1cccc(C(c2ccccc2)N2CCN(c3ncnc4c3cnn4-c3ccccc3)CC2)c1 (stereo unspecified)
IC50 [1]: 780 nM
IC50 [2]: 110 nM
IC50 [3]: > 25000 nM

c1ccc(C(c2ccco2)N2CCN(c3ncnc4c3cnn4-c3ccccc3)CC2)cc1 (stereo unspecified)
IC50 [1]: 1250 nM
IC50 [2]: 270 nM
IC50 [3]: > 25000 nM

N#Cc1ccc(C(c2ccccc2)N2CCN(c3ncnc4c3cnn4-c3ccccc3)CC2)cc1 (stereo unspecified)
IC50 [1]: 940 nM
IC50 [2]: 180 nM
IC50 [3]: > 25000 nM
